The values that follow come from ChEMBL document CHEMBL1629692, “Susceptibility of gram-negative pathogens isolated from patients with complicated intra-abdominal infections in the United States, 2007-2008: results of the Study for Monitoring Antimicrobial Resistance Trends (SMART)” (2010).

Assay type in all cases: functional
One test has as its system Citrobacter freundii. Nature of the test: Antimicrobial activity against Citrobacter freundii obtained from patient with complicated intra-abdominal infection assessed as percent susceptible isolates by agar dilution method. In general terms: Agar dilution tests growth on a series of plates holding different concentrations.
Test [1] concerns Escherichia coli. Description: Antimicrobial activity against Escherichia coli obtained from patient with complicated intra-abdominal infection assessed as percent susceptible isolates by agar dilution method.
The next test has as its system Klebsiella oxytoca. Nature of the test: Antimicrobial activity against extended-spectrum beta-lactamase-positive Klebsiella oxytoca assessed as percent susceptible isolates by agar dilution method.
Another test concerns Proteus mirabilis. Description: Antimicrobial activity against extended-spectrum beta-lactamase-positive Proteus mirabilis assessed as percent susceptible isolates by agar dilution method.
For test [2], the system named is Escherichia coli. Nature of the test: Antimicrobial activity against extended-spectrum beta-lactamase-positive Escherichia coli obtained from patient with complicated intra-abdominal infection assessed as percent susceptible isolates by agar dilution method.
Another test has as its system Enterobacter cloacae. Description: Antimicrobial activity against Enterobacter cloacae obtained from patient with complicated intra-abdominal infection assessed as percent susceptible isolates by agar dilution method.
For test [3], the system named is Klebsiella pneumoniae. Nature of the test: Antimicrobial activity against Klebsiella pneumoniae assessed as percent susceptible isolates by agar dilution method.
In test [4] the test system is Klebsiella pneumoniae. Description: Antimicrobial activity against extended-spectrum beta-lactamase-negative Klebsiella pneumoniae assessed as percent susceptible isolates by agar dilution method.
A further test deals with Serratia marcescens. Nature of the test: Antimicrobial activity against Serratia marcescens assessed as percent susceptible isolates by agar dilution method.
In test [5] the test system is Escherichia coli. Description: Antimicrobial activity against extended-spectrum beta-lactamase-negative Escherichia coli obtained from patient with complicated intra-abdominal infection assessed as percent susceptible isolates by agar dilution method.
A further test concerns Klebsiella aerogenes. Nature of the test: Antimicrobial activity against Enterobacter aerogenes obtained from patient with complicated intra-abdominal infection assessed as percent susceptible isolates by agar dilution method.
Test [6] relates to Klebsiella pneumoniae. Nature of the test: Antimicrobial activity against extended-spectrum beta-lactamase-positive Klebsiella pneumoniae assessed as percent susceptible isolates by agar dilution method.
The next test deals with Pasteurella sp. Description: Antimicrobial activity against Pasteurella sp. assessed as percent susceptible isolates by agar dilution method.
The subject of a further test is Pseudomonas aeruginosa. Nature of the test: Antimicrobial activity against Pseudomonas aeruginosa assessed as percent susceptible isolates by agar dilution method.
The next test relates to Pseudomonas fluorescens. Nature of the test: Antimicrobial activity against Pseudomonas fluorescens assessed as percent susceptible isolates by agar dilution method.
The next test concerns Acinetobacter sp. Description: Antimicrobial activity against Acinetobacter sp. assessed as percent susceptible isolates by agar dilution method.
For test [7], the system named is Stenotrophomonas maltophilia. Nature of the test: Antimicrobial activity against Stenotrophomonas maltophilia assessed as percent susceptible isolates by agar dilution method.
The next test deals with Enterobacteriaceae. Description: Antimicrobial activity against Enterobacteriaceae Extended-Spectrum beta-lactamase positive assessed as percent susceptible isolates by agar dilution method.

On to `C[C@@H](O)[C@H]1C(=O)N2C(C(=O)O)=C(S[C@@H]3CN[C@H](C(=O)Nc4cccc(C(=O)O)c4)C3)[C@H](C)[C@H]12`, for which the Activity with Citrobacter freundii worked out at 94%; with Escherichia coli [1], 99%; with Klebsiella oxytoca it was 100%; in the test with Proteus mirabilis, 100%; in the test on Escherichia coli [2] it was 100%; in the test on Enterobacter cloacae, 92%. The Activity in the test with Klebsiella pneumoniae [3] is on record as 96%; in the test with Klebsiella pneumoniae [4], 100%; in the test on Serratia marcescens, 100%; with Escherichia coli [5], 99%; in the test on Klebsiella aerogenes, 100%; with Klebsiella pneumoniae [6], 78%.
`CO/N=C(\C(=O)N[C@@H]1C(=O)N2C(C(=O)[O-])=C(C[N+]3(C)CCCC3)CS[C@H]12)c1csc(N)n1`: the Activity with Pasteurella sp. is given as 23%; with Citrobacter freundii it was 94%; in the test with Klebsiella oxytoca, 96%; with Pseudomonas aeruginosa, 72%; with Proteus mirabilis, 100%; in the test with Escherichia coli [2], 48%. The Activity in the test with Klebsiella pneumoniae [3] amounted to 91%; with Klebsiella pneumoniae [4], 100%; in the test with Pseudomonas fluorescens, 23%; in the test on Acinetobacter sp. it was 23%; in test [7], 23%; with Serratia marcescens, 100%. For the same molecule, the results for the Activity in the test with Klebsiella aerogenes and with Klebsiella pneumoniae [6] were 100% and 47%, respectively.
Turning to `NCC[C@H](O)C(=O)N[C@@H]1C[C@H](N)[C@@H](O[C@H]2O[C@H](CN)[C@@H](O)[C@H](O)[C@H]2O)[C@H](O)[C@H]1O[C@H]1O[C@H](CO)[C@@H](O)[C@H](N)[C@H]1O` [AMIKACIN], the Activity in the test on Pasteurella sp. is given as 31%; in the test with Citrobacter freundii, 100%; in the test with Escherichia coli [1], 98%; in the test with Klebsiella oxytoca, 100%; with Pseudomonas aeruginosa, 96%; in the test with Proteus mirabilis it was 100%. Besides, the Activity with Escherichia coli [2] came to 71%; in the test with Enterobacter cloacae it was 99%; with Klebsiella pneumoniae [3], 95%; with Klebsiella pneumoniae [4], 100%; in the test on Pseudomonas fluorescens, 31%; with Acinetobacter sp., 31%. Besides, the Activity in test [7] turned out to be 31%; in the test with Serratia marcescens, 100%; in the test with Escherichia coli [5], 100%; in the test with Klebsiella aerogenes it was 100%; with Klebsiella pneumoniae [6] it was 69%.
For the molecule `CO/N=C(\C(=O)N[C@@H]1C(=O)N2C(C(=O)O)=C(COC(C)=O)CS[C@H]12)c1csc(N)n1` [CEFOTAXIME], the Activity with Pasteurella sp. turned out to be 8%; with Citrobacter freundii it was 67%; with Escherichia coli [1], 96%; in the test with Klebsiella oxytoca, 96%; in the test on Pseudomonas aeruginosa, 9%; in the test with Proteus mirabilis, 100%. The Activity in the test with Escherichia coli [2] worked out at 38%; in the test on Enterobacter cloacae it was 62%; with Enterobacteriaceae, 6%; with Klebsiella pneumoniae [3], 85%; in the test with Klebsiella pneumoniae [4], 99%; in the test on Pseudomonas fluorescens it was 8%. Moreover, the Activity in the test on Acinetobacter sp. is 8%; in test [7], 8%; in the test with Serratia marcescens, 100%; in the test with Escherichia coli [5] it was 99%; in the test on Klebsiella aerogenes, 79%; with Klebsiella pneumoniae [6], 19%.
For `CO[C@@]1(NC(=O)Cc2cccs2)C(=O)N2C(C(=O)O)=C(COC(N)=O)CS[C@@H]21` [CEFOXITIN], the Activity is recorded as 17% with Citrobacter freundii; 93% with Escherichia coli [1]; 96% in the test on Klebsiella oxytoca; 100% in the test with Proteus mirabilis; 71% in the test with Escherichia coli [2]; 1% in the test on Enterobacter cloacae. The Activity was determined as 84% in the test on Klebsiella pneumoniae [3]; 87% in the test with Klebsiella pneumoniae [4]; 26% with Serratia marcescens; 94% in the test with Escherichia coli [5]; 8% in the test with Klebsiella aerogenes; 66% with Klebsiella pneumoniae [6].
For `CC(C)(O/N=C(\C(=O)N[C@@H]1C(=O)N2C(C(=O)[O-])=C(C[n+]3ccccc3)CS[C@H]12)c1csc(N)n1)C(=O)O` [CEFTAZIDIME], the Activity is given as 32% with Pasteurella sp.; 72% in the test on Citrobacter freundii; 96% with Escherichia coli [1]; 96% in the test on Klebsiella oxytoca; 76% with Pseudomonas aeruginosa; 94% in the test on Proteus mirabilis. In addition, the Activity is given as 52% in the test with Escherichia coli [2]; 66% with Enterobacter cloacae; 31% in the test with Enterobacteriaceae; 86% in the test on Klebsiella pneumoniae [3]; 100% in the test on Klebsiella pneumoniae [4]; 32% with Pseudomonas fluorescens. The Activity with Acinetobacter sp. was found to be 32%; in test [7], 32%; in the test on Serratia marcescens it was 100%; with Escherichia coli [5] it was 98%; in the test on Klebsiella aerogenes it was 63%; with Klebsiella pneumoniae [6], 19%.
For `CO/N=C(\C(=O)N[C@@H]1C(=O)N2C(C(=O)O)=C(CSc3nc(=O)c(O)nn3C)CS[C@H]12)c1csc(N)n1` [CEFTRIAXONE], the Activity in the test with Pasteurella sp. is on record as 15%; in the test with Citrobacter freundii, 67%; in the test with Escherichia coli [1] it was 96%; in the test on Klebsiella oxytoca it was 89%; in the test on Pseudomonas aeruginosa it was 17%; in the test on Proteus mirabilis, 100%. For the same molecule, the Activity in the test with Escherichia coli [2] is 38%; in the test on Enterobacter cloacae it was 64%; in the test on Enterobacteriaceae, 7%; in the test on Klebsiella pneumoniae [3] it was 85%; in the test with Klebsiella pneumoniae [4], 99%; with Pseudomonas fluorescens, 15%. Further, the Activity in the test on Acinetobacter sp. is listed as 15%; in test [7], 15%; with Serratia marcescens, 100%; in the test with Escherichia coli [5] it was 98%; with Klebsiella aerogenes, 79%; in the test with Klebsiella pneumoniae [6], 19%.
As to `O=C(O)c1cn(C2CC2)c2cc(N3CCNCC3)c(F)cc2c1=O` [CIPROFLOXACIN], the Activity in the test on Pasteurella sp. was 15%; with Citrobacter freundii it was 72%; in the test with Klebsiella oxytoca, 96%; with Proteus mirabilis, 97%; with Escherichia coli [2], 33%; with Klebsiella pneumoniae [3] it was 80%. For the same molecule, the Activity turned out to be 15% in the test on Pseudomonas fluorescens; 15% in the test with Acinetobacter sp.; 15% in test [7]; 93% in the test on Serratia marcescens; 82% in the test on Escherichia coli [5]; 96% with Klebsiella aerogenes. Moreover, the Activity in the test on Klebsiella pneumoniae [6] was 19%.
With `C[C@@H](O)[C@H]1C(=O)N2C(C(=O)O)=C(SCCNC=N)C[C@H]12` [IMIPENEM ANHYDROUS], the Activity in the test on Pasteurella sp. is given as 69%; in the test on Citrobacter freundii, 100%; in the test with Escherichia coli [1], 100%; in the test on Klebsiella oxytoca, 100%; in the test on Pseudomonas aeruginosa, 78%; with Proteus mirabilis, 93%. The Activity with Escherichia coli [2] came to 100%; in the test on Enterobacter cloacae, 100%; in the test on Klebsiella pneumoniae [3], 99%; in the test on Klebsiella pneumoniae [4] it was 100%; with Pseudomonas fluorescens, 69%; with Acinetobacter sp., 69%. Further, the Activity in [7] is on record as 69%; in the test on Serratia marcescens, 100%; with Escherichia coli [5], 100%; with Klebsiella aerogenes, 100%; in the test with Klebsiella pneumoniae [6], 94%.
For `C[C@H]1COc2c(N3CCN(C)CC3)c(F)cc3c(=O)c(C(=O)O)cn1c23.C[C@H]1COc2c(N3CCN(C)CC3)c(F)cc3c(=O)c(C(=O)O)cn1c23.O` [LEVOFLOXACIN], the Activity stood at 47% in the test with Pasteurella sp.; 78% in the test with Citrobacter freundii; 81% in the test with Escherichia coli [1]; 100% with Klebsiella oxytoca; 72% in the test on Pseudomonas aeruginosa; 100% with Proteus mirabilis. Also, the Activity in the test on Escherichia coli [2] is 33%; in the test on Enterobacter cloacae, 88%; in the test with Klebsiella pneumoniae [3], 84%; with Klebsiella pneumoniae [4], 96%; in the test with Pseudomonas fluorescens it was 47%; in the test with Acinetobacter sp., 47%. Besides, the Activity in test [7] stood at 47%; in the test on Serratia marcescens, 93%; with Escherichia coli [5], 83%; in the test with Klebsiella aerogenes, 96%; in the test on Klebsiella pneumoniae [6] it was 28%.
